Where “and” joins values, the source holds several entries; their conditions need not be identical. Identical values can stand only once. Numbers after ± are expanded uncertainties.
Assays:
[1] = Molar enthalpy of transition or fusion; details: Crystal; DSC
[2] = molar enthalpy of transition or fusion; details: DSC
[3] = molar enthalpy of vaporization or sublimation; details: 298.15 K; Crystal; Torsion-effucion
[4] = molar heat capacity at constant pressure; details: 101.33 kPa, Crystal, Flow calorimetry

O=C(O)c1cc(Br)cc(Br)c1 [3,5-dibromobenzoic acid]
vapor or sublimation pressure (355.2 K, Crystal, Torsion effusion method): 1.9e-05 ± 2e-05 kPa
vapor or sublimation pressure (358 K, Crystal, Torsion effusion method): 2.8e-05 ± 2e-05 kPa
vapor or sublimation pressure (359 K, Crystal, Torsion effusion method): 2.8e-05 ± 2e-05 kPa
vapor or sublimation pressure (360.5 K, Crystal, Torsion effusion method): 3.8e-05 ± 2e-05 kPa
vapor or sublimation pressure (362.5 K, Crystal, Torsion effusion method): 4.7e-05 ± 2e-05 kPa
vapor or sublimation pressure (363.8 K, Crystal, Torsion effusion method): 4.7e-05 ± 2e-05 kPa
vapor or sublimation pressure (365.2 K, Crystal, Torsion effusion method): 5.7e-05 ± 2e-05 kPa
vapor or sublimation pressure (365.6 K, Crystal, Torsion effusion method): 5.7e-05 ± 2e-05 kPa
vapor or sublimation pressure (366.4 K, Crystal, Torsion effusion method): 6.6e-05 ± 2e-05 kPa
vapor or sublimation pressure (366.8 K, Crystal, Torsion effusion method): 7.6e-05 ± 2.1e-05 kPa
vapor or sublimation pressure (369.2 K, Crystal, Torsion effusion method): 9.5e-05 ± 2.1e-05 kPa
vapor or sublimation pressure (371 K, Crystal, Torsion effusion method): 0.000114 ± 2.1e-05 kPa
vapor or sublimation pressure (371.2 K, Crystal, Torsion effusion method): 0.000114 ± 2.1e-05 kPa
vapor or sublimation pressure (371.3 K, Crystal, Torsion effusion method): 0.000114 ± 2.1e-05 kPa
vapor or sublimation pressure (372.5 K, Crystal, Torsion effusion method): 0.000133 ± 2.2e-05 kPa
vapor or sublimation pressure (373 K, Crystal, Torsion effusion method): 0.000133 ± 2.2e-05 kPa
vapor or sublimation pressure (373.7 K, Crystal, Torsion effusion method): 0.000133 ± 2.2e-05 kPa
vapor or sublimation pressure (374 K, Crystal, Torsion effusion method): 0.000152 ± 2.2e-05 kPa
vapor or sublimation pressure (375.6 K, Crystal, Torsion effusion method): 0.000189 ± 2.3e-05 kPa
vapor or sublimation pressure (376 K, Crystal, Torsion effusion method): 0.000189 ± 2.3e-05 kPa
vapor or sublimation pressure (377 K, Crystal, Torsion effusion method): 0.000208 ± 2.4e-05 kPa
vapor or sublimation pressure (377.9 K, Crystal, Torsion effusion method): 0.000227 ± 2.4e-05 kPa
vapor or sublimation pressure (378.2 K, Crystal, Torsion effusion method): 0.000208 ± 2.4e-05 kPa
vapor or sublimation pressure (380.2 K, Crystal, Torsion effusion method): 0.000284 ± 2.7e-05 kPa
vapor or sublimation pressure (380.4 K, Crystal, Torsion effusion method): 0.000284 ± 2.7e-05 kPa
vapor or sublimation pressure (381.3 K, Crystal, Torsion effusion method): 0.000303 ± 2.7e-05 kPa
vapor or sublimation pressure (381.5 K, Crystal, Torsion effusion method): 0.000303 ± 2.7e-05 kPa
vapor or sublimation pressure (383.2 K, Crystal, Torsion effusion method): 0.000398 ± 3.2e-05 kPa
vapor or sublimation pressure (383.7 K, Crystal, Torsion effusion method): 0.000398 ± 3.2e-05 kPa
vapor or sublimation pressure (384.1 K, Crystal, Torsion effusion method): 0.000379 ± 3.1e-05 kPa
vapor or sublimation pressure (384.3 K, Crystal, Torsion effusion method): 0.000436 ± 3.3e-05 kPa
vapor or sublimation pressure (386.3 K, Crystal, Torsion effusion method): 0.000474 ± 3.5e-05 kPa
vapor or sublimation pressure (386.6 K, Crystal, Torsion effusion method): 0.000531 ± 3.8e-05 kPa
vapor or sublimation pressure (386.9 K, Crystal, Torsion effusion method): 0.000531 ± 3.8e-05 kPa
vapor or sublimation pressure (387.7 K, Crystal, Torsion effusion method): 0.000531 ± 3.8e-05 kPa
vapor or sublimation pressure (389.8 K, Crystal, Torsion effusion method): 0.000758 ± 5.1e-05 kPa
vapor or sublimation pressure (390.1 K, Crystal, Torsion effusion method): 0.00072 ± 4.8e-05 kPa
vapor or sublimation pressure (390.8 K, Crystal, Torsion effusion method): 0.000796 ± 5.3e-05 kPa
vapor or sublimation pressure (391.1 K, Crystal, Torsion effusion method): 0.000739 ± 4.9e-05 kPa
vapor or sublimation pressure (393.1 K, Crystal, Torsion effusion method): 0.000947 ± 6.1e-05 kPa
vapor or sublimation pressure (393.7 K, Crystal, Torsion effusion method): 0.000947 ± 6.1e-05 kPa
vapor or sublimation pressure (394 K, Crystal, Torsion effusion method): 0.001004 ± 6.5e-05 kPa
vapor or sublimation pressure (395.6 K, Crystal, Torsion effusion method): 0.001213 ± 7.7e-05 kPa
vapor or sublimation pressure (395.9 K, Crystal, Torsion effusion method): 0.001175 ± 7.5e-05 kPa
vapor or sublimation pressure (500.1 K, Liquid, isothermal thermogravimetric): 1.128 ± 0.081 kPa
vapor or sublimation pressure (500.1 K, Liquid, non-isothermal thermogravimetric): 1.173 ± 0.084 kPa
vapor or sublimation pressure (500.7 K, Liquid, non-isothermal thermogravimetric): 1.118 ± 0.11 kPa
vapor or sublimation pressure (501.1 K, Liquid, isothermal thermogravimetric): 1.191 ± 0.062 kPa
vapor or sublimation pressure (501.1 K, Liquid, non-isothermal thermogravimetric): 1.135 ± 0.12 kPa
vapor or sublimation pressure (501.3 K, Liquid, non-isothermal thermogravimetric): 1.141 ± 0.099 kPa
vapor or sublimation pressure (501.6 K, Liquid, isothermal thermogravimetric): 1.21 ± 0.081 kPa
vapor or sublimation pressure (502.2 K, Liquid, isothermal thermogravimetric): 1.21 ± 0.082 kPa
vapor or sublimation pressure (504 K, Liquid, non-isothermal thermogravimetric): 1.377 ± 0.1 kPa
vapor or sublimation pressure (504.6 K, Liquid, isothermal thermogravimetric): 1.376 ± 0.081 kPa
vapor or sublimation pressure (504.9 K, Liquid, non-isothermal thermogravimetric): 1.33 ± 0.1 kPa
vapor or sublimation pressure (505.1 K, Liquid, isothermal thermogravimetric): 1.405 ± 0.082 kPa
vapor or sublimation pressure (505.2 K, Liquid, non-isothermal thermogravimetric): 1.358 ± 0.1 kPa
vapor or sublimation pressure (505.4 K, Liquid, isothermal thermogravimetric): 1.401 ± 0.089 kPa
vapor or sublimation pressure (505.6 K, Liquid, non-isothermal thermogravimetric): 1.401 ± 0.1 kPa
vapor or sublimation pressure (506.3 K, Liquid, isothermal thermogravimetric): 1.426 ± 0.091 kPa
vapor or sublimation pressure (508.2 K, Liquid, non-isothermal thermogravimetric): 1.617 ± 0.11 kPa
vapor or sublimation pressure (508.8 K, Liquid, isothermal thermogravimetric): 1.646 ± 0.082 kPa
vapor or sublimation pressure (508.9 K, Liquid, isothermal thermogravimetric): 1.615 ± 0.082 kPa
vapor or sublimation pressure (509 K, Liquid, non-isothermal thermogravimetric): 1.592 ± 0.11 kPa and 1.624 ± 0.11 kPa
vapor or sublimation pressure (509.2 K, Liquid, isothermal thermogravimetric): 1.652 ± 0.083 kPa
vapor or sublimation pressure (509.4 K, Liquid, non-isothermal thermogravimetric): 1.653 ± 0.11 kPa
vapor or sublimation pressure (510.3 K, Liquid, isothermal thermogravimetric): 1.637 ± 0.096 kPa
vapor or sublimation pressure (512.3 K, Liquid, non-isothermal thermogravimetric): 1.893 ± 0.1 kPa
vapor or sublimation pressure (512.9 K, Liquid, isothermal thermogravimetric): 1.908 ± 0.1 kPa
vapor or sublimation pressure (513 K, Liquid, isothermal thermogravimetric): 1.9 ± 0.1 kPa
vapor or sublimation pressure (513.1 K, Liquid, isothermal thermogravimetric): 1.909 ± 0.1 kPa
vapor or sublimation pressure (513.1 K, Liquid, non-isothermal thermogravimetric): 1.85 ± 0.11 kPa
vapor or sublimation pressure (513.3 K, Liquid, non-isothermal thermogravimetric): 1.802 ± 0.11 kPa
vapor or sublimation pressure (513.5 K, Liquid, non-isothermal thermogravimetric): 1.882 ± 0.12 kPa
vapor or sublimation pressure (514.4 K, Liquid, isothermal thermogravimetric): 1.98 ± 0.1 kPa
vapor or sublimation pressure (516.3 K, Liquid, non-isothermal thermogravimetric): 2.222 ± 0.12 kPa
vapor or sublimation pressure (516.7 K, Liquid, isothermal thermogravimetric): 2.189 ± 0.089 kPa
vapor or sublimation pressure (517 K, Liquid, isothermal thermogravimetric): 2.217 ± 0.091 kPa
vapor or sublimation pressure (517.1 K, Liquid, isothermal thermogravimetric): 2.176 ± 0.089 kPa
vapor or sublimation pressure (517.1 K, Liquid, non-isothermal thermogravimetric): 2.15 ± 0.13 kPa and 2.187 ± 0.13 kPa
vapor or sublimation pressure (517.5 K, Liquid, non-isothermal thermogravimetric): 2.228 ± 0.12 kPa
vapor or sublimation pressure (518.2 K, Liquid, isothermal thermogravimetric): 2.223 ± 0.12 kPa
vapor or sublimation pressure (520.1 K, Liquid, non-isothermal thermogravimetric): 2.546 ± 0.12 kPa
vapor or sublimation pressure (520.6 K, Liquid, isothermal thermogravimetric): 2.505 ± 0.11 kPa
vapor or sublimation pressure (520.9 K, Liquid, isothermal thermogravimetric): 2.553 ± 0.11 kPa
vapor or sublimation pressure (521 K, Liquid, non-isothermal thermogravimetric): 2.478 ± 0.12 kPa
vapor or sublimation pressure (521.2 K, Liquid, isothermal thermogravimetric): 2.586 ± 0.11 kPa
vapor or sublimation pressure (521.2 K, Liquid, non-isothermal thermogravimetric): 2.518 ± 0.12 kPa
vapor or sublimation pressure (521.4 K, Liquid, non-isothermal thermogravimetric): 2.57 ± 0.11 kPa
vapor or sublimation pressure (522.5 K, Liquid, isothermal thermogravimetric): 2.612 ± 0.12 kPa
vapor or sublimation pressure (524.2 K, Liquid, non-isothermal thermogravimetric): 2.862 ± 0.11 kPa
vapor or sublimation pressure (525 K, Liquid, isothermal thermogravimetric): 2.943 ± 0.12 kPa and 2.941 ± 0.12 kPa
vapor or sublimation pressure (525.2 K, Liquid, non-isothermal thermogravimetric): 2.789 ± 0.14 kPa
vapor or sublimation pressure (525.4 K, Liquid, isothermal thermogravimetric): 2.995 ± 0.14 kPa
vapor or sublimation pressure (525.4 K, Liquid, non-isothermal thermogravimetric): 2.858 ± 0.15 kPa
vapor or sublimation pressure (525.5 K, Liquid, non-isothermal thermogravimetric): 2.884 ± 0.15 kPa
vapor or sublimation pressure (526.3 K, Liquid, isothermal thermogravimetric): 3.009 ± 0.079 kPa
vapor or sublimation pressure (528.1 K, Liquid, non-isothermal thermogravimetric): 3.325 ± 0.15 kPa
vapor or sublimation pressure (528.9 K, Liquid, non-isothermal thermogravimetric): 3.233 ± 0.13 kPa and 3.297 ± 0.14 kPa
vapor or sublimation pressure (529.2 K, Liquid, non-isothermal thermogravimetric): 3.322 ± 0.08 kPa
Normal melting temperature (Crystal, DTA): 218.1 ± 0.5 °C
Molar enthalpy of transition or fusion [1]: 20.2 ± 0.526 kcal/mol
molar enthalpy of transition or fusion ([2]; 298.15 K, Crystal): 28.8 ± 1.55 kcal/mol
molar enthalpy of transition or fusion ([2]; 491.2 K, Crystal): 20.2 kcal/mol and 27.4 kcal/mol
molar enthalpy of transition or fusion ([2]; 491.2 K, Liquid): 7.03 ± 0.86 kcal/mol
molar enthalpy [3]: 28.8 ± 0.478 kcal/mol
molar heat capacity at constant pressure ([4]; 288.2 K): 215.7 ± 0.9 J/K/mol and 215.8 ± 0.9 J/K/mol
molar heat capacity at constant pressure ([4]; 290.2 K): 217.3 ± 1 J/K/mol and 217.5 ± 1 J/K/mol and 217.4 ± 1 J/K/mol
molar heat capacity at constant pressure ([4]; 292.2 K): 219.2 ± 0.9 J/K/mol and 219.3 ± 0.9 J/K/mol and 219.4 ± 0.9 J/K/mol
molar heat capacity at constant pressure ([4]; 294.2 K): 220.3 ± 0.8 J/K/mol and 220.4 ± 0.8 J/K/mol
molar heat capacity at constant pressure ([4]; 296.2 K): 221.6 ± 0.8 J/K/mol and 221.5 ± 0.8 J/K/mol
molar heat capacity at constant pressure ([4]; 298.2 K): 223.2 ± 1 J/K/mol and 223.1 ± 1 J/K/mol and 223 ± 1 J/K/mol
molar heat capacity at constant pressure ([4]; 300.2 K): 224.5 ± 0.9 J/K/mol and 224.9 ± 0.9 J/K/mol and 224.7 ± 0.9 J/K/mol
molar heat capacity at constant pressure ([4]; 302.2 K): 225.8 ± 0.8 J/K/mol and 225.7 ± 0.8 J/K/mol
molar heat capacity at constant pressure ([4]; 304.2 K): 227.2 ± 0.8 J/K/mol and 227.1 ± 0.8 J/K/mol and 227 ± 0.8 J/K/mol
molar heat capacity at constant pressure ([4]; 306.2 K): 228.4 ± 0.8 J/K/mol and 228.3 ± 0.8 J/K/mol
molar heat capacity at constant pressure ([4]; 308.2 K): 229.6 ± 1 J/K/mol and 229.8 ± 1 J/K/mol and 229.9 ± 1 J/K/mol
molar heat capacity at constant pressure ([4]; 310.2 K): 231.5 ± 0.9 J/K/mol and 231.6 ± 0.9 J/K/mol
molar heat capacity at constant pressure ([4]; 312.2 K): 232.5 ± 0.8 J/K/mol and 232.3 ± 0.8 J/K/mol and 232.4 ± 0.8 J/K/mol
molar heat capacity at constant pressure ([4]; 314.2 K): 234.1 ± 0.9 J/K/mol and 233.9 ± 0.9 J/K/mol and 234 ± 0.9 J/K/mol
molar heat capacity at constant pressure ([4]; 316.2 K): 235.2 ± 0.9 J/K/mol and 235.3 ± 0.9 J/K/mol
molar heat capacity at constant pressure ([4]; 318.2 K): 236.9 ± 1 J/K/mol and 236.7 ± 1 J/K/mol and 237 ± 1 J/K/mol
molar heat capacity at constant pressure ([4]; 320.2 K): 238.5 ± 0.7 J/K/mol and 238.4 ± 0.7 J/K/mol
molar heat capacity at constant pressure ([4]; 322.2 K): 239 ± 0.8 J/K/mol and 239.2 ± 0.8 J/K/mol
molar heat capacity at constant pressure ([4]; 324.2 K): 240.7 ± 1 J/K/mol and 240.6 ± 1 J/K/mol and 240.5 ± 1 J/K/mol
molar heat capacity at constant pressure ([4]; 326.2 K): 242.5 ± 1 J/K/mol and 242.4 ± 1 J/K/mol

Source: the NIST ThermoML archive (doi:10.1016/j.fluid.2012.11.006)
